Measured values published in publication PMC3901045 (Lab on a chip, 2013).

Target: T1, cyt P450 1A1 (Homo sapiens, UniProt P04798)
T1 sequence (P04798 1-512): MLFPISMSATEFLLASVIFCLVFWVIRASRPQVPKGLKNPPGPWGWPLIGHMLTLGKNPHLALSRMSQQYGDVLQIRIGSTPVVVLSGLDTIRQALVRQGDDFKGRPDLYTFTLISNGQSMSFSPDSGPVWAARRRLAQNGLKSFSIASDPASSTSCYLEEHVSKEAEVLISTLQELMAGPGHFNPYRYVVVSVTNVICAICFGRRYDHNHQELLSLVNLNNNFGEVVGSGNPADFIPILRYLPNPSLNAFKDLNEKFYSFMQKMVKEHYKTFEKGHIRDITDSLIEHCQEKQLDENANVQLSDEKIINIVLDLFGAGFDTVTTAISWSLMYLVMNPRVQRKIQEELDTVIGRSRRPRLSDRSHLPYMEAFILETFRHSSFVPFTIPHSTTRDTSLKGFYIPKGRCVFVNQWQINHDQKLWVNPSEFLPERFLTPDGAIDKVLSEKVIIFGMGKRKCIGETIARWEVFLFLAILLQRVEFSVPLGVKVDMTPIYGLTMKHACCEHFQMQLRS
Assay type: biochemical

Which IC50 does the source give for COc1ccc(/C=C/c2cc(O)cc(O)c2)cc1O [rhapontigenin] here?
The IC50 was 32 ± 1 nM.
